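GI50: concentration for 50% inhibition of growth. TGI: concentration producing complete growth inhibition.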
Columns and labels:
Assay in all cases: growth of human tumour cells (NCI), 384-well format
NCI-H522 lung = test system: NCI-H522 lung
MDA-MB-435 melanoma = test system: MDA-MB-435 melanoma
HS 578T breast = test system: HS 578T breast
DU-145 prostate = test system: DU-145 prostate
RPMI-8226 leukemia = test system: RPMI-8226 leukemia
COLO 205 colon = test system: COLO 205 colon
EKVX NSCLC = test system: EKVX NSCLC
CCRF-CEM leukemia = test system: CCRF-CEM leukemia
KM12 colon = test system: KM12 colon
LOX IMVI melanoma = test system: LOX IMVI melanoma
NCI-H226 lung = test system: NCI-H226 lung
OVCAR-8 ovarian = test system: OVCAR-8 ovarian
A549 NSCLC = test system: A549 NSCLC
SF-295 CNS = test system: SF-295 CNS
NCI-H322M lung = test system: NCI-H322M lung
SF-539 CNS = test system: SF-539 CNS
SN12C renal = test system: SN12C renal
UACC-257 melanoma = test system: UACC-257 melanoma
HOP-62 NSCLC = test system: HOP-62 NSCLC
TK-10 renal = test system: TK-10 renal
SK-MEL-2 melanoma = test system: SK-MEL-2 melanoma
SK-OV-3 ovarian = test system: SK-OV-3 ovarian
UO-31 renal = test system: UO-31 renal
MDA-MB-231 breast = test system: MDA-MB-231 breast
SNB-19 CNS = test system: SNB-19 CNS
MCF7 breast = test system: MCF7 breast
MOLT-4 leukemia = test system: MOLT-4 leukemia
NCI-H23 lung = test system: NCI-H23 lung
HCT-15 colon = test system: HCT-15 colon
UACC-62 melanoma = test system: UACC-62 melanoma
OVCAR-3 ovarian = test system: OVCAR-3 ovarian
SNB-75 CNS = test system: SNB-75 CNS
HL-60(TB) leukemia = test system: HL-60(TB) leukemia
HCC-2998 colon = test system: HCC-2998 colon
OVCAR-4 ovarian = test system: OVCAR-4 ovarian
M14 melanoma = test system: M14 melanoma
HT29 colon = test system: HT29 colon
IGROV1 ovarian = test system: IGROV1 ovarian
NCI/ADR-RES ovarian = test system: NCI/ADR-RES ovarian
HCT-116 colon = test system: HCT-116 colon
U251 glioblastoma = test system: U251 glioblastoma
SK-MEL-28 melanoma = test system: SK-MEL-28 melanoma
K-562 leukemia = test system: K-562 leukemia
HOP-92 NSCLC = test system: HOP-92 NSCLC
NCI-H460 NSCLC = test system: NCI-H460 NSCLC
786-0 renal = test system: 786-0 renal
MDA-MB-468 breast = test system: MDA-MB-468 breast
CAKI-1 renal = test system: CAKI-1 renal
PC-3 prostate = test system: PC-3 prostate
T-47D breast = test system: T-47D breast
SF-268 CNS = test system: SF-268 CNS
SW-620 colon = test system: SW-620 colon
SR leukemia = test system: SR leukemia
A498 renal = test system: A498 renal
MALME-3M melanoma = test system: MALME-3M melanoma
OVCAR-5 ovarian = test system: OVCAR-5 ovarian
BT-549 breast = test system: BT-549 breast
ACHN renal = test system: ACHN renal
SK-MEL-5 melanoma = test system: SK-MEL-5 melanoma

Question: How did the GI50 (NCI-H522 lung) turn out when `CO[C@H]1C[C@@H]2CC[C@@H](C)[C@@](O)(O2)C(=O)C(=O)N2CCCC[C@H]2C(=O)O[C@H]([C@H](C)C[C@@H]2CC[C@@H](OCCO)[C@H](OC)C2)CC(=O)[C@H](C)C=C(C)[C@@H](O)[C@@H](OC)C(=O)[C@H](C)C[C@H](C)/C=C/C=C/C=C1C` was run?
Answer: 9.37 µM

Question: What about the TGI (NCI-H522 lung) of the same compound?
Answer: 22 µM

Question: And the GI50 (MDA-MB-435 melanoma)?
Answer: 16.2 µM

Question: What about the TGI (MDA-MB-435 melanoma) of the same compound?
Answer: 29.9 µM

Question: And the TGI (HS 578T breast)?
Answer: 7.24 µM

Question: What about the GI50 (DU-145 prostate) of the same compound?
Answer: 7.21 µM

Question: And the TGI (DU-145 prostate)?
Answer: 23.4 µM

Question: What about the GI50 (RPMI-8226 leukemia) of the same compound?
Answer: < 0.01 µM

Question: And the TGI (RPMI-8226 leukemia)?
Answer: 1.87 µM

Question: What about the GI50 (COLO 205 colon) of the same compound?
Answer: 14.6 µM

Question: And the TGI (COLO 205 colon)?
Answer: 27.7 µM

Question: And the GI50 (EKVX NSCLC)?
Answer: 1.79 µM

Question: What about the TGI (EKVX NSCLC) of the same compound?
Answer: 20.4 µM

Question: What about the GI50 (CCRF-CEM leukemia) of the same compound?
Answer: < 0.01 µM

Question: What about the TGI (CCRF-CEM leukemia) of the same compound?
Answer: 2.84 µM

Question: And the GI50 (KM12 colon)?
Answer: 11.2 µM

Question: And the TGI (KM12 colon)?
Answer: 23.3 µM

Question: What about the GI50 (LOX IMVI melanoma) of the same compound?
Answer: 6.02 µM

Question: What about the TGI (LOX IMVI melanoma) of the same compound?
Answer: 20.9 µM

Question: And the GI50 (NCI-H226 lung)?
Answer: 9.49 µM

Question: What about the TGI (NCI-H226 lung) of the same compound?
Answer: 21.8 µM

Question: And the GI50 (OVCAR-8 ovarian)?
Answer: 10.9 µM

Question: What about the TGI (OVCAR-8 ovarian) of the same compound?
Answer: 22.8 µM

Question: And the TGI (A549 NSCLC)?
Answer: 20 µM

Question: And the TGI (SF-295 CNS)?
Answer: 16 µM

Question: What about the GI50 (NCI-H322M lung) of the same compound?
Answer: 6.97 µM

Question: What about the TGI (NCI-H322M lung) of the same compound?
Answer: 22.1 µM

Question: What about the GI50 (SF-539 CNS) of the same compound?
Answer: 3.06 µM

Question: What about the TGI (SF-539 CNS) of the same compound?
Answer: 19.7 µM

Question: And the GI50 (SN12C renal)?
Answer: 11.7 µM

Question: And the TGI (SN12C renal)?
Answer: 24.2 µM

Question: And the GI50 (UACC-257 melanoma)?
Answer: 16.5 µM

Question: What about the TGI (UACC-257 melanoma) of the same compound?
Answer: 30.1 µM

Question: What about the GI50 (HOP-62 NSCLC) of the same compound?
Answer: 0.548 µM

Question: What about the TGI (HOP-62 NSCLC) of the same compound?
Answer: 20.7 µM

Question: And the GI50 (TK-10 renal)?
Answer: 13.6 µM

Question: And the TGI (TK-10 renal)?
Answer: 31 µM

Question: What about the GI50 (SK-MEL-2 melanoma) of the same compound?
Answer: 14.2 µM

Question: What about the TGI (SK-MEL-2 melanoma) of the same compound?
Answer: 27.2 µM

Question: And the GI50 (SK-OV-3 ovarian)?
Answer: 12.1 µM

Question: And the TGI (SK-OV-3 ovarian)?
Answer: 25.4 µM

Question: What about the GI50 (UO-31 renal) of the same compound?
Answer: < 0.01 µM

Question: And the GI50 (MDA-MB-231 breast)?
Answer: 12.5 µM

Question: And the TGI (MDA-MB-231 breast)?
Answer: 25.1 µM

Question: What about the GI50 (SNB-19 CNS) of the same compound?
Answer: 12.8 µM

Question: What about the TGI (SNB-19 CNS) of the same compound?
Answer: 25.5 µM

Question: What about the GI50 (MCF7 breast) of the same compound?
Answer: < 0.0154 µM

Question: And the TGI (MCF7 breast)?
Answer: 12.9 µM

Question: What about the GI50 (MOLT-4 leukemia) of the same compound?
Answer: < 0.01 µM

Question: What about the TGI (MOLT-4 leukemia) of the same compound?
Answer: 2.24 µM

Question: What about the GI50 (NCI-H23 lung) of the same compound?
Answer: 11.6 µM

Question: What about the TGI (NCI-H23 lung) of the same compound?
Answer: 23.9 µM

Question: What about the GI50 (HCT-15 colon) of the same compound?
Answer: 1.43 µM

Question: What about the TGI (HCT-15 colon) of the same compound?
Answer: 18.7 µM

Question: What about the GI50 (UACC-62 melanoma) of the same compound?
Answer: 6.61 µM

Question: What about the TGI (UACC-62 melanoma) of the same compound?
Answer: 14.9 µM

Question: What about the GI50 (OVCAR-3 ovarian) of the same compound?
Answer: 4.68 µM

Question: And the TGI (OVCAR-3 ovarian)?
Answer: 21.8 µM

Question: What about the GI50 (SNB-75 CNS) of the same compound?
Answer: 0.124 µM

Question: What about the TGI (SNB-75 CNS) of the same compound?
Answer: 4.55 µM

Question: And the GI50 (HL-60(TB) leukemia)?
Answer: 2.16 µM

Question: What about the TGI (HL-60(TB) leukemia) of the same compound?
Answer: 6.09 µM

Question: What about the GI50 (HCC-2998 colon) of the same compound?
Answer: 7.55 µM

Question: What about the TGI (HCC-2998 colon) of the same compound?
Answer: 22.9 µM

Question: And the GI50 (OVCAR-4 ovarian)?
Answer: 10.8 µM

Question: What about the TGI (OVCAR-4 ovarian) of the same compound?
Answer: 24.1 µM

Question: And the GI50 (M14 melanoma)?
Answer: 12.1 µM

Question: And the TGI (M14 melanoma)?
Answer: 24.5 µM

Question: And the GI50 (HT29 colon)?
Answer: 11.5 µM

Question: What about the TGI (HT29 colon) of the same compound?
Answer: 23.7 µM

Question: What about the GI50 (IGROV1 ovarian) of the same compound?
Answer: < 0.01 µM

Question: What about the TGI (IGROV1 ovarian) of the same compound?
Answer: 11.2 µM

Question: What about the GI50 (NCI/ADR-RES ovarian) of the same compound?
Answer: 13.5 µM

Question: And the TGI (NCI/ADR-RES ovarian)?
Answer: 28.7 µM

Question: And the GI50 (HCT-116 colon)?
Answer: 8.33 µM

Question: And the TGI (HCT-116 colon)?
Answer: 21.9 µM

Question: What about the GI50 (U251 glioblastoma) of the same compound?
Answer: 5.77 µM

Question: What about the TGI (U251 glioblastoma) of the same compound?
Answer: 21.1 µM

Question: What about the GI50 (SK-MEL-28 melanoma) of the same compound?
Answer: 11.9 µM

Question: What about the TGI (SK-MEL-28 melanoma) of the same compound?
Answer: 16.5 µM

Question: And the GI50 (K-562 leukemia)?
Answer: 2.04 µM

Question: What about the TGI (K-562 leukemia) of the same compound?
Answer: 15.3 µM

Question: What about the GI50 (HOP-92 NSCLC) of the same compound?
Answer: 11.2 µM

Question: What about the TGI (HOP-92 NSCLC) of the same compound?
Answer: 23.4 µM

Question: And the GI50 (NCI-H460 NSCLC)?
Answer: 0.377 µM

Question: What about the TGI (NCI-H460 NSCLC) of the same compound?
Answer: 18.7 µM

Question: What about the GI50 ([…]-0 renal) of the same compound?
Answer: 0.777 µM

Question: What about the TGI (786-0 renal) of the same compound?
Answer: 21.1 µM

Question: What about the GI50 (MDA-MB-468 breast) of the same compound?
Answer: < 0.01 µM

Question: What about the TGI (MDA-MB-468 breast) of the same compound?
Answer: 8.91 µM

Question: What about the GI50 (CAKI-1 renal) of the same compound?
Answer: 5.67 µM

Question: And the TGI (CAKI-1 renal)?
Answer: 21.4 µM

Question: And the GI50 (PC-3 prostate)?
Answer: 0.549 µM

Question: And the TGI (PC-3 prostate)?
Answer: 17.7 µM

Question: What about the TGI (T-47D breast) of the same compound?
Answer: 16.2 µM

Question: And the GI50 (SF-268 CNS)?
Answer: 12.6 µM

Question: And the TGI (SF-268 CNS)?
Answer: 25.3 µM

Question: And the GI50 (SW-620 colon)?
Answer: 11.8 µM

Question: What about the TGI (SW-620 colon) of the same compound?
Answer: 16.4 µM

Question: And the GI50 (SR leukemia)?
Answer: < 0.01 µM

Question: What about the TGI (SR leukemia) of the same compound?
Answer: 1.3 µM

Question: What about the GI50 (A498 renal) of the same compound?
Answer: < 0.0276 µM

Question: And the TGI (A498 renal)?
Answer: 17.4 µM

Question: And the GI50 (MALME-3M melanoma)?
Answer: < 0.01 µM

Question: And the TGI (MALME-3M melanoma)?
Answer: 14.6 µM

Question: And the GI50 (OVCAR-5 ovarian)?
Answer: 15.2 µM

Question: What about the TGI (OVCAR-5 ovarian) of the same compound?
Answer: 29.1 µM

Question: And the TGI (BT-549 breast)?
Answer: 15.6 µM

Question: What about the GI50 (ACHN renal) of the same compound?
Answer: 2.93 µM

Question: And the TGI (ACHN renal)?
Answer: 22.2 µM

Question: And the GI50 (SK-MEL-5 melanoma)?
Answer: 0.414 µM

Question: What about the TGI (SK-MEL-5 melanoma) of the same compound?
Answer: 3.78 µM

— PubChem BioAssay (NCI)
